# ChEMBL document CHEMBL1201862, “PubChem BioAssay data set” (2004)
# Active and inactive are the calls of the source.
# How the values were obtained:
# [1] = luciferase reporter signal suppression in cells – H4 neuroglioma cells, luminescence, dose response (AID 1990); assay type: functional, cell-based
# [2] = Luminescence Cell-Based Dose Response HTS to Identify Inhibitors of 5'UTR Stem-Loop Driven Prion Protein mRNA Translation in H4 Neuroglioblastoma Cells. [Related pubchem assays: 1827 (Project Summary), 1813 (Primary HTS)]; assay type: functional
# [3] = alpha-synuclein stem-loop luciferase translation blockers – H4 neuroglioma cells, luminescence, confirmation (AID 1988); assay type: functional, cell-based
# [4] = molecular target: T1, Short transient receptor potential channel 4 (Mus musculus, UniProt Q9QUQ5); assay: block of DAMGO-driven TRPC4 calcium entry – cell-based, HEK293 TRPC4/mu-opioid, Fluo-4 calcium, dose response (AID 434942); assay type: functional;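 also: potency of inhibitors blocking the TRPC4 calcium response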
# T1 sequence (Q9QUQ5 whole entry): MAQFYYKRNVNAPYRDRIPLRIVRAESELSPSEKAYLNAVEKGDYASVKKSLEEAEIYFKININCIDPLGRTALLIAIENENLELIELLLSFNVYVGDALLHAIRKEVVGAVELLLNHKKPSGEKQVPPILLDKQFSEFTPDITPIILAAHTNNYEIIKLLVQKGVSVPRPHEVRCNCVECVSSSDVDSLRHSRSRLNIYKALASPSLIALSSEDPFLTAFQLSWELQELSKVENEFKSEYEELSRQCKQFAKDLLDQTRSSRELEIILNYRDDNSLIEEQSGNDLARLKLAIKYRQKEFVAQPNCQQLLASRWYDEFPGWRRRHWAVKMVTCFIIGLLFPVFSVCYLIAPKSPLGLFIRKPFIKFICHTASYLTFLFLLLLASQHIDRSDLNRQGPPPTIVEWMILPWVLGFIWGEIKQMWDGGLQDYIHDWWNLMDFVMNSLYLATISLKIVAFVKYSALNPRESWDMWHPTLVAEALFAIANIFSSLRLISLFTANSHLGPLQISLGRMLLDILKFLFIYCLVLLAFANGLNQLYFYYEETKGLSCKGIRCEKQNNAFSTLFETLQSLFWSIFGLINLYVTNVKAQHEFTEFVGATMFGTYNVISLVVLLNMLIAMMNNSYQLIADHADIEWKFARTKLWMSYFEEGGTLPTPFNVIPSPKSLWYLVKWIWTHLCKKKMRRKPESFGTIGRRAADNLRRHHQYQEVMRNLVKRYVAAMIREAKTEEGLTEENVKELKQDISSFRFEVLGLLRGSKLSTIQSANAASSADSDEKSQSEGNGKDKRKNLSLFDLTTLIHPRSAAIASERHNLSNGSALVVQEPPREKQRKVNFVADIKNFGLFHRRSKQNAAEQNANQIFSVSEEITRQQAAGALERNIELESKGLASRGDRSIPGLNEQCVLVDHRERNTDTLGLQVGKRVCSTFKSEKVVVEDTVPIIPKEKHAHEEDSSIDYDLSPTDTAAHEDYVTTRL
# [5] = microbe, parasite or virus in culture; assay type: functional; conditions: Mycobacterium tuberculosis
# [6] = molecular target: T2, Microphthalmia-associated transcription factor (Homo sapiens, UniProt O75030); assay: reducers of TRPM1 reporter luminescence, concentration series – cell-based, SK-MEL-5, cherry-picked, set 3, MITF inhibitor project, dose response (AID 493073); assay type: functional;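 also: SK-MEL-5 melanoma cells with luciferase driven by the MITF target TRPM1 promoter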
# T2 sequence (O75030 whole entry): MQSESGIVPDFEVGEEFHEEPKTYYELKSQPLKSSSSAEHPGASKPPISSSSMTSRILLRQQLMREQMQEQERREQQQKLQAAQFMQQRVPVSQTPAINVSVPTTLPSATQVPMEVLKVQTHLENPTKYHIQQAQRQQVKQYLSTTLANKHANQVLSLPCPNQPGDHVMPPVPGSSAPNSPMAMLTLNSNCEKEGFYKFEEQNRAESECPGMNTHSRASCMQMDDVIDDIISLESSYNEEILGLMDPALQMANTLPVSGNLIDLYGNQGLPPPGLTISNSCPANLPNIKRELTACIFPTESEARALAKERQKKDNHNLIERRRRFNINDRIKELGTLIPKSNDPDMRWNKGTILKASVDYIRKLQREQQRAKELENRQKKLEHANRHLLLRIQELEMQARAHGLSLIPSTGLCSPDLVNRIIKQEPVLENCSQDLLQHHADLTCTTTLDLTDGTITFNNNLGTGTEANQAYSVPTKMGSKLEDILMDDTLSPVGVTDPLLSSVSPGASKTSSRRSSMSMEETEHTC
# [7] = molecular target: T3, Polyadenylate-binding protein 1 (Homo sapiens, UniProt P11940); assay: MLLE binding blockers, Cy5 peptide tracer – biochemical, fluorescence polarization, Cy5-PAM2 peptide, secondary, miRNA deadenylation inhibitor project, dose response (AID 602260); assay type: functional; conditions: read-out: IC50_Mean
# T3 sequence (P11940 whole entry, the tested form may be a part): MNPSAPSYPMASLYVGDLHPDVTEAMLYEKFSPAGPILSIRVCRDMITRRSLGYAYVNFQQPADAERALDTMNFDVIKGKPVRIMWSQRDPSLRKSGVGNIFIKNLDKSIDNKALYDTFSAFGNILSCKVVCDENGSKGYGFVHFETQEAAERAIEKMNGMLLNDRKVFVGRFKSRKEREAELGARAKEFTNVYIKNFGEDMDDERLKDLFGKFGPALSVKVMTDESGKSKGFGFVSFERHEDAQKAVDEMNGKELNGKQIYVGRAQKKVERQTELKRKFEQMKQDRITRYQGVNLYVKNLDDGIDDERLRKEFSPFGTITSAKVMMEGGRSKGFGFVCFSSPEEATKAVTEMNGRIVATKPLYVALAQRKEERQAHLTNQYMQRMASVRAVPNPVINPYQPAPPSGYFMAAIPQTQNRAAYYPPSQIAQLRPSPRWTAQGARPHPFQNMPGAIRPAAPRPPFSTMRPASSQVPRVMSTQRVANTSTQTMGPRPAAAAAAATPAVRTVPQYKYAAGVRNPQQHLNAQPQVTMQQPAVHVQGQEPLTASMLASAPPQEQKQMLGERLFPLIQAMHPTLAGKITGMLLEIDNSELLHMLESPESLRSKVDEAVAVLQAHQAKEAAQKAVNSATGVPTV
# [8] = molecular target: T3, Polyadenylate-binding protein 1; assay: MLLE domain peptide-binding blockers, IC50 – biochemical, fluorescence polarization, FITC-PAM2 peptide, dose response (AID 602259); assay type: functional; conditions: read-out: IC50_Mean
# [9] = blockers of HIV-1 envelope-mediated cell-cell fusion – cherry-pick, dose response (AID 652057); assay type: functional, cell-based
# [10] = viability loss in CEM21 cells – cell-based, CellTiter-Glo luminescence, cherry-picked, cytotoxicity control for viral fusion inhibitor project, dose response (AID 652042); assay type: functional;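 also: potency for signal decrease meaning cytotoxicity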
# [11] = blockers of HIV-1 ZM109 envelope-driven cell-cell fusion – HeLa effector, CEM target cells, luciferase, cherry-pick, dose response (AID 652058); assay type: functional, cell-based;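 also: luciferase signal from HIV-1 Env mediated cell-cell fusion of effector and target cells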
# [12] = off-target signal loss in HeLa-CEM21 co-culture – HeLa F-luc CTL cells, cherry-picked, counter-screen for HIV-1 Env fusion inhibitor project, dose response (AID 652040); assay type: functional, cell-based;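 also: potency for signal decrease marking cytotoxic or nonspecific inhibition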
# [13] = HIV-1 AD8 envelope cell-cell fusion blockers – cherry-pick, dose response (AID 652062); assay type: functional, cell-based;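 also: luciferase signal from cell-cell fusion driven by HIV-1 clade B AD8 Env; potency is for inhibitors of fusion seen as a drop in luminescence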
# [14] = Trypanosoma cruzi growth suppression in host cells – NIH3T3 host cells, beta-gal luminescence, confirmation (AID 2044); assay type: functional, cell-based;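 also: intracellular parasites grown in NIH/3T3 mouse fibroblasts as host cells; luminescent beta-galactosidase reporter signal from transgenic T. cruzi replicating inside host cells; inhibitors lower the luminescence signal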
# [15] = NIH3T3 cell viability loss – ATP luminescence, mouse fibroblasts, counter-screen, dose response (AID 2010); assay type: functional, cell-based;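 also: cells exposed to compound for about 90 hours before reading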
compound,measurement,setting,value
NC1=NC2=C(CCCC2)C2(CCCCC2)S1,EC50,[1],> 120 µM (not active)
same,EC50,[2],34.5 µM (active)
same,EC50,[3],9.28 µM (active)
same,EC50,[4],1.19 µM (active)
CC(C)(C)c1ccc(C2C3=C(CCCC3=O)N=C3C2=C(O)c2ccccc23)cc1 (stereo not drawn),CC50,[5],> 40 µM (active)
Cc1nc2nc(C)c(NS(=O)(=O)c3ccc4c(c3)CCCC4)c(O)n2n1,AC50,[6],136 µM (active)
O=C(O)c1cc2ccccc2c(N=Nc2cccnc2)c1O,AC50,[6],11.4 µM (active)
Cc1c(N(C)S(=O)(=O)c2cc(C(=O)NCC3CCCO3)ccc2Cl)c(=O)n(-c2ccccc2)n1C (stereo not drawn),EC50,[4],1.88 µM (active)
CCOC(=O)C1(CCc2ccccc2)CCN(Cc2cccc3c2OCO3)CC1,EC50,[4],0.668 µM (active)
CNCc1c(OCc2ccccc2)ccc2ccccc12,EC50,[4],3.76 µM (active)
COc1ccc(C)cc1-n1nnnc1SCn1nnc2ccccc2c1=O,IC50,[7],> 66 µM (inactive)
same,IC50,[8],> 66 µM (inactive)
Cc1cccc(Cn2c(C(C)(C)C)cc3cccnc32)c1,EC50,[4],0.531 µM (active)
CN(CC(=O)Nc1cccc(F)c1)C(=O)CNS(=O)(=O)c1ccc(N(C)C)c([N+](=O)[O-])c1,IC50,[7],> 66 µM (inactive)
same,IC50,[8],> 66 µM (inactive)
Cc1c(CCOC(=O)C23CC4CC(CC(C)(C4)C2)C3)sc[n+]1CC(=O)c1ccccc1,AC50,[9],1.96 µM (active)
same,AC50,[10],20.5 µM (active)
same,AC50,[11],5.44 µM (active)
same,AC50,[12],5.26 µM (active)
same,AC50,[13],8.8 µM (active)
CCOC(=O)c1cnc(Nc2nc3ccccc3o2)nc1CSC(=S)N(CC)CC,EC50,[14],0.17 µM (active)
same,CC50,[5],28 µM (active)
same,EC50,[15],> 60 µM (not active)
